PubChem BioAssay (NCI)
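Assay format: 96-well plates, 48-hour exposure. TGI: total growth inhibition.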

Key:
Assay in all cases: DTP human tumour cell line panel, 48 h
[1] = tested on: LOX IMVI melanoma
[2] = tested on: HT29 colon
[3] = tested on: A498 renal
[4] = tested on: NCI-H522 lung
[5] = tested on: NCI-H226 lung
[6] = tested on: ACHN renal
[7] = tested on: CCRF-CEM leukemia
[8] = tested on: 786-0 renal
[9] = tested on: RPMI-8226 leukemia
[10] = tested on: U251 CNS
[11] = tested on: KM12 colon

| Compound | TGI [1] [µM] | TGI [2] [µM] | TGI [3] [µM] | TGI [4] [µM] | TGI [5] [µM] | TGI [6] [µM] | TGI [7] [µM] | TGI [8] [µM] | TGI [9] [µM] | TGI [10] [µM] | TGI [11] [µM] |
| --- | --- | --- | --- | --- | --- | --- | --- | --- | --- | --- | --- |
| CCOc1cc2c(cc1O)/C(=N\N)C[C@@H]1[C@@H]2CC[C@]2(C)[C@@H](O)CC[C@@H]12 | > 41.5 | 30.8 | > 100 | 5.58 | 29.2 | > 100 | > 100 | > 38.5 | > 100 | > 48.9 | 23 |
| CC1=NN(c2nc(N)nc(-c3ccccc3S(N)(=O)=O)n2)C(C)(C)C1 | > 100 | > 100 | 64.5 | > 100 | > 100 | 82.1 | > 100 | > 100 | > 100 | > 100 | > 100 |
| CNC(=O)c1ccccc1-[s+]1c2ccccc2c(=O)n1C (centres undefined) | > 100 | > 100 | > 100 | > 100 | > 100 | > 100 | > 100 | > 100 | > 100 | > 100 | > 100 |
| C1OCC2S[C@@H]3COCO[C@@H]3C2O1 (some centres undefined) | > 100 | > 100 | > 100 | > 100 | > 100 | > 100 | > 100 | > 100 | > 100 | > 100 | > 100 |
